“And” between values parts separate entries of the source, which are not always exact repeats. Identical values can stand only once.

Experimental findings from patent US20040177664A1, “Production of a high quality organic-based fertilizer” (priority 2003, published 2004) are described below.

The nature of data set [1]: Influence of additives on sludge pH. It counts as physicochemical. The following applies: for sludge pH: 0.5 g of each additive on about 5 g sludge. How it is done:
The influence of different additives on the sludge pH was also evaluated.
Influence of Additives on Sludge PH
Treatments with urea, CaSO4, CaO

Data set [2] in a line: Odor reduction of municipal sludge, headspace GC-MS and odor. Also on record: reducing odor / Relative reduction of peak area: concentration or dose not given beside the values. The following applies: for reducing odor: oxidizing agents, general statement. As to the method: Effectiveness of the treatments was evaluated through the GC-MS analysis of the treated and untreated sludge. Sludge (5.0 g) was placed into a 44 ml vial. After heating to 60.0° C. for 5.0 minutes a probe of gas was taken from the vial (0.5 ml) and injected into the GC-MS.
Hewlett-Packard (HP) GC 5890 coupled with an HP 5971 mass-spectrometer. The system incorporates an electron beam as an ion source. Ions are filtered through a glass with silver-coated quadruples.
A DB5MS capillary chromatographic column is used and the MS is tuned with PFTBA in a Scan Mode (tune file: BFB.U).
For further characterization the peak area of the 94-ion was selected. The calibration was performed using dimethyldisulfide. A calibration curve is presented in the attached data.
In the first series, 6.00 g (±0.05) of the sludge with the addition of 10.0 ml of distilled water was used. For the treatment, we used potential oxidizers such as KNO3 and H2SO4 in different combinations.
In the second series we used 5.00 g (±0.01) of the sludge with no dilution. For the treatment we used additions of hydrogen peroxide (30%) −0.5 ml, sulfuric acid (98%), −0.5 ml, a combination of hydrogen peroxide and 0.5 ml and sulfuric acid 0. ml, ammonia (54%) −0.5ml, calcium hypochlorite −0.5 g.
The effectiveness of the additions is evaluated through decreasing the area of 94-ion signal with retention time around 1.94 minutes. We also investigated the influence of time.
The samples of the sludge (approximately 5.0 g) were placed into the vials and treated with additions of CaOCl2 at a temperature of 60.0° C.
The reproducibility of the treatment with calcium hypochlorite Ca(OCl)2 (CHC) on sludge was investigated. In all experiments, 5.0 g of sludge in a special vial was treated with an addition of percent of weight of odor reducer (0.05 g). After heating to 60.0° C. for 5.0 minutes, a sample of vapor over the sludge was taken and injected into the GC/MS. Total Ion Chromatograph signal with retention time […] were used for evaluation of the treatment corresponding to dimethylsulfide).

For the compound `[O]=[Ca]` [CaO, calcium oxide], the “sludge pH” value is 11.5 and 11.65 in data set [1]; 11.8 in data set [1] (listed as calcium oxide).
On to `[Ca+2].[O-]Cl.[O-]Cl` [CaOCl2, calcium hypochlorite], for which the “effect on sludge pH” value in data set [1] is reported as “does not affect the sludge pH”. Further, in data set [2] (against untreated sludge 376025), the “Relative reduction of peak area” value was 97.98% and 96.16% and 98.54% and 96.59% and 98.86% and 99.03% and 99.17% and 99.47%. In addition, the “Average Relative Reduction of the peak area” value in data set [2] (eight replicates, confidence interval 95%) is 98.23% and 98.23±0.85%. Further, in data set [2], the reducing odor is reported as 98%.
Consider `O=S(=O)([O-])[O-].[Ca+2]` [CaSO4, Calcium sulfate], for which, in data set [1], the “effect on sludge pH” value is “does not change the sludge pH”; the “sludge pH” value was 6.3 and 6.25.
As for `NC(N)=O` [Urea], in data set [1], the “sludge pH” value is 8.32 and 8.45.
On to `[K+].[O-]Cl` [potassium hypochlorite], for which the reducing odor in data set [2] is 98%.
